Measurements from ChEMBL document CHEMBL3507680, “University of Dundee, Gates Library screen for HepG2 cell viability”.

Test: Human HepG2 cell viability assay in 384 well format
Assay type: toxicity, cell-based
Set-up: dose 125 nL, time 70.5 hour; cytotoxicity at 70.5 h: concentration not given beside the values
Details: HepG2 cells, read-out: Inhibition

Compound | cytotoxicity at 70.5 h [%]
CCC1=NN2C(=N)/C(=C\c3cccn3-c3cccc(Cl)c3)C(=O)N=C2S1 | -0.175
O=c1c2ccccc2nc2n1CCC2O (stereo unspecified) | -12.8
CC[C@H]1CN2CC[C@H]1C[C@@H]2CNCc1ccc(OC)cc1 | -3.31
CN1CCC(N2C[C@H](O)C[C@H]2c2nc(Cc3ccccc3)no2)CC1 | -7.37
CC(C)(C)NC(=O)C[C@@H]1CCNC[C@@H]1Cc1cc(C(C)(C)C)on1 | -1.48
Cc1ccc(-c2noc([C@@H]3C[C@H](NC(=O)NC(C)C)CN3C)n2)cc1 | -7.56
CN1CCN(CC[C@@H]2CC[C@H](O)[C@@H](C(=O)Nc3ccccc3)O2)CC1 | 1.15
O=C1N[C@@H]2CCN(C(=O)C3CC3)[C@@H]2C(=O)N1c1ccccc1 | -10.7
COc1ccccc1-c1nnc([C@H]2CCN(C(C)=O)C2)o1 | -6.37
c1cc(-c2nnc([C@H]3CCNC3)o2)ccn1 | -2.31
CN1C(=O)CO[C@H]2CN(C(=O)Nc3ccc(F)cc3)C[C@H]21 | -7.97
Fc1ccc2nc([C@H]3CCNC3)[nH]c2c1 | -0.112
CC(C)NC(=O)N1CCN2C(=O)OC[C@H]2C1 | 10.9
F[C@@H]1CN(CC2CC2)C[C@@H]1OCc1nc2ncccc2[nH]1 | -3.03
O=C1NC[C@H]2CN(C3CCOCC3)CCN12 | -4.38
CC1=C[C@@H](CN2CCCC2)[C@H](C(C)C)C[C@H]1Cc1nnc(C)o1 | -4.38
COCC(=O)NC[C@H]1C[C@@H]2CCN1C[C@@H]2CN1CCc2ccccc2C1 | -12.4
CC1=C[C@@H](CN2CCOCC2)[C@H](C(C)C)C[C@H]1Cc1nnc(C)o1 | -5.39
COC(=O)c1cccc2nc([C@H]3CCN(Cc4ccccc4)C3)oc12 | -11.8
CN1CCC[C@H]1c1nc(-c2cncnc2N)no1 | -7.81
Nc1ncncc1-c1noc([C@@H]2CCCN2CC2CC2)n1 | 9.61
Cc1ccc(S(=O)(=O)NC[C@H]2OC[C@@H](NCc3cccnc3)[C@@H]2O)cc1 | -7.82

Compound | cytotoxicity at 70.5 h [%]
Cn1cncc1-c1nnc([C@H]2CCN(C3CCOCC3)C2)o1 | -3.04
CN1C[C@@H](F)[C@@H](OCc2nc3ccccc3[nH]2)C1 | -5.45
CC(C)NC(=O)NC[C@H]1OC[C@@H](NCc2ccc(F)cc2)[C@@H]1O | -4.37
CC(C)(C)c1cc(C[C@H]2CNCC[C@H]2CC(=O)Nc2ccccc2)no1 | -2.1
CC(C)NC[C@H]1COCc2nc3cccnc3n21 | -8.17
CS(=O)(=O)N1CC[C@H](c2nc3ccc(C(F)(F)F)cc3[nH]2)C1 | -4.96
FC(F)(F)Oc1ccc(-c2noc([C@@H]3Cc4nc[nH]c4CN3)n2)cc1 | -4.51
CN1CCC(N2CC[C@H](c3nc4ccc(C(F)(F)F)cc4[nH]3)C2)CC1 | -13.2
O=C1CO[C@H]2CN(C3CCOCC3)C[C@H]2N1Cc1ccccn1 | 1.72
COCc1ccc(CN[C@H]2C[C@@H](Cc3cc(CCO)on3)C2(C)C)o1 | -1.61
COc1ccc(-c2noc([C@@H]3C[C@@H](O)CN3C3CCOCC3)n2)cc1 | 41.8
CC(C)C[C@@H]1N[C@H](C(=O)NC2CCOCC2)Cc2c[nH]c3cccc1c23 | -4.79
CN1C(=O)CO[C@H](c2ccc(NC(=O)c3cccc(F)c3)cc2)[C@H]1CO | -0.0128
CC(=O)N1CCC(N2CCOC[C@H]2c2nc(-c3cccnc3)c[nH]2)CC1 | 17.9
CC(C)(C)CC(=O)NC[C@H]1OC[C@@H](NCc2ccccn2)[C@@H]1O | -10.1
O=S(=O)(NC[C@H]1C[C@@H]2CCN1C[C@@H]2CN1CCCCC1)c1ccccc1 | -6.11
CCN(CC)CC[C@H]1CN(C(=O)C(C)(C)C)CC[C@H]1CC(=O)O | -8.97
CCNC(=O)N1CC[C@@H](CC(=O)O)[C@@H](CC2=NCCc3ccccc32)C1 | -2.71
Cc1cc(O)cc2c(=O)oc(CC(C)O)cc12 (stereo unspecified) | -6.88
Oc1ccc([C@H]2Oc3cc(O)cc(O)c3C[C@@H]2O)cc1 | -11.9
Cc1nc(SCC(=O)Nc2ccc(C(N)=O)cc2)c(C#N)c(C)c1C | 4.83
Cc1ccc(-c2noc(C(C)NS(C)(=O)=O)n2)cc1 (stereo unspecified) | 21.2

Compound | cytotoxicity at 70.5 h [%]
Cc1ccc(-c2ccc(=O)n(CC(=O)Nc3nccs3)n2)cc1 | -4.07
CN(C)CCNCC1CCOC(C)(C)C1 (stereo unspecified) | -10.1
CCN(CC)CCCNCC1CCOC(C)(C)C1 (stereo unspecified) | -3.64
CCN(CC)CCNc1c(-c2ccccc2)c(=O)c1=O | -0.107
COc1ccc(C)cc1NC(=O)c1c(C)cn(C)c1CC(=O)O | -11
COCCCNc1c(-c2ccc(Cl)cc2)c(=O)c1=O | 6.7
CN1CCN(c2ccc(NS(=O)(=O)c3ccc(Cl)s3)cc2C(=O)O)CC1 | -2.11
O=C(c1ccc(N2CCCCCC2)nn1)N1CCc2ccccc21 | -3.2
CC(C)c1nnc(NC(=O)CSCc2cc(=O)n3ccccc3n2)s1 | -4.94
Cc1cccc2nc(CSCC(=O)Nc3nnc(C(C)C)s3)cc(=O)n12 | -10.6
CCCNC(=O)COc1cc(C)c2c(C)nn(-c3ccc(C)cc3)c2n1 | -2.23
Cc1ccn(CCC(=O)NCc2ccco2)n1 | 0.885
COc1ccccc1N1CCN(C(=O)CCn2ccc(C)n2)CC1 | 23.2
O=C(CCn1cccc1)NCc1ccc(CN2CCCCCC2)o1 | 0.95
CCCNC(=O)COc1cc(C)c2c(C)nn(-c3ccccc3)c2n1 | -4.53
Cc1ccc(NC(=O)c2ccc(=O)n(CC(=O)NC3CCCC3)n2)cc1 | 4.71
CCOCc1nc(N2CCCC2)sc1C(=O)NCc1ccco1 | -5.28
CCOCCCNC(=O)C1(C)CCC(=O)N1c1ccccc1F (stereo unspecified) | -3.95
CCOCCCNC(=O)C1(C)CCC(=O)N1c1ccccc1OC (stereo unspecified) | -8.49
CC(=O)N1CCC2(C=C(C(=O)NC3CC3)c3ccccc32)CC1 | -13.7
CN(C)C[C@@H]1C[C@@H]2CN(C(=O)Cc3cccs3)CC[C@@H]2N1C | 13.4
C[C@@H]1CN(C(=O)Cc2ccsc2)C[C@]12CCN(CCN(C)C)C2=O | -10.3

Compound | cytotoxicity at 70.5 h [%]
CCN1CCOCC2(CCCN(C(=O)c3cccc(O)c3)C2)C1 (stereo unspecified) | -6.13
CN1C(=O)CCCC12CCCN(C(=O)c1ccc3c(c1)OCO3)C2 (stereo unspecified) | -15.9
O=C(NCC1CC1)C1CCC2(CCN(C(=O)c3cccs3)CC2)O1 (stereo unspecified) | -15.2
COc1ccc(C(=O)N2CCCC3(CCCC(=O)N3C)C2)cc1 (stereo unspecified) | -6.78
COc1ncccc1CN1C[C@@H]2C[C@@H](C(=O)NCC3CC3)N(C)[C@@H]2C1 | -12.2
Cn1cc(CN2CC[C@H]3[C@H]2CC(=O)N3Cc2ccncc2)cn1 | -15.4
CCN1CCOCC2(CCCN(C(=O)c3cnccn3)C2)C1 (stereo unspecified) | -14.9
CC(C)NC(=O)CC1COC2(CCN(Cc3ccco3)CC2)C1 (stereo unspecified) | 18
O=S(=O)(c1ccccc1Cl)N1CCc2nc(C3CCNCC3)ncc2C1 | -3.67
CCC(=O)N1CCC(O)(c2ncc(OC)nc2OC)CC1 | -12.8
O=C(c1ccc(F)cc1F)N1CC[C@H](O)[C@@H](N2CCOCC2)CC1 | -13.9
CC(C)(N)C(=O)N1CCCC1c1cncc(Oc2ccc(F)cc2)n1 (stereo unspecified) | 0.148
CCC(=O)N1CCC(Cc2nccnc2Nc2ccccn2)CC1 | 20.4
COc1cccc(OC)c1CN1CCC2(CC(Nc3ccncn3)C2)C1 (stereo unspecified) | -9.12
NC[C@H]1CC[C@H](C(NC(=O)c2ccccc2)c2ccccn2)CC1 (stereo partly specified) | 11.1
Cn1cc(C(=O)N2CCC(Cc3nccs3)CC2)cn1 | 22.3
CC(=O)N1CCCC1c1csc(Nc2cnccn2)n1 (stereo unspecified) | -4.91
CC(=O)N1CCCC1c1cc(N2CCN(C3CCCC3)CC2)cc(C)n1 (stereo unspecified) | -7.01
Cc1nc(-c2ccc(C(=O)O)cc2)cc(C2CCN(C(C)C)C2)n1 (stereo unspecified) | -9.52
Cc1cc(C(=O)N[C@H](C)c2onc(C)c2C(=O)O)c(C)o1 | -4.02
Cc1noc([C@@H](C)NCc2cccc(Cl)c2)c1C(=O)O | 2.52
CC(=O)NC[C@@]1(COc2cnccn2)C[C@@H](O)[C@@H](O)C1 | -3.14

Compound | cytotoxicity at 70.5 h [%]
O=C1CC2(CCNCC2)C(=O)N1Cc1ccc(F)cc1 | 29.9
Fc1ccc(CN2CCC(c3n[nH]c4ncccc34)CC2)cc1F | 22.2
CCC(=O)N1C[C@@H]2CCN(c3cnccn3)C[C@@H]2C1 | 35.4
O=C(NCC1CC1)C1CCC2(CCN(C(=O)c3ccncc3)CC2)O1 (stereo unspecified) | 10.5
COCCN1CCC2(CCCN(Cc3ccoc3)C2)C1=O (stereo unspecified) | 12.2
O=C(c1ccc(F)cc1)N1CCC2(CC1)CC(N1CCOCC1)C2 | -13.1
CC[C@@H]1N(Cc2ccco2)CCC[C@]12CCC(=O)N2C | 12.7
Cc1ccc(CN2CCC3(CC2)CC(CC(=O)NC(C)C)CO3)s1 (stereo unspecified) | -7.06
O=C(CC1CC1)N1CCC2(CCCN(CCOc3ccccc3)C2)C1 (stereo unspecified) | -11.8
CCOCC(=O)N1C[C@@H]2CCN(c3cnccn3)C[C@@H]2C1 | -3.75
CC(C)CC(=O)N1C[C@@H]2CCN(c3cnccn3)C[C@@H]2C1 | -5.35
O=C1C[C@H]2[C@@H](CCN2C(=O)Cc2ccsc2)N1Cc1cccnc1 | -3.76
CN1[C@@H](C(=O)NCC2CC2)C[C@H]2CN(Cc3ccsc3)C[C@H]21 | 12.6
CN1[C@H](CN2CCCC2)C[C@@H]2CN(C(=O)Cc3ccsc3)CC[C@@H]21 | -10.6
Cc1cccc(CN2C(=O)C[C@H]3[C@@H]2CCN3Cc2nccs2)n1 | -22.3
CN(Cc1cccnc1)C1CC2(CCN(c3ncccn3)CC2)C1 | -15.1
Cc1cccc(CN2C(=O)C[C@@H]3[C@@H]2CCN3Cc2ccsc2)n1 | -8.36
COc1cc(C2CC(=O)c3c(O)cc(O)cc3O2)ccc1O (stereo unspecified) | -8.7
